Measured values published in paper PMC11111408, “Concurrent inhibition of oncogenic and wild-type RAS-GTP for cancer therapy” (Nature, 2024).
Like-named read-outs stand apart in the source and are kept apart here.

System: panel of 183 cancer cell lines
Test: Cell panel of 183 cancer cell lines, viability (CTG) at Crown Bioscience
Assay type: cell-based
Conditions: Homo sapiens
Text: The panel consisted of cell lines with any substitution at position 12 of KRAS, NRAS or HRAS (KRAS(G12X), NRAS(G12X), HRAS(G12X)); substitutions in KRAS, NRAS or HRAS at any position other than 12, 13 and 61 (KRAS(other/VUS), NRAS(other/VUS), HRAS(other/VUS)); other oncogenic mutations in the RAS pathway (ABL1, ALK, ARAF, BRAF, CBL, EGFR, ERBB2, ERBB3, ERBB4, ERRFI1, FGFR1, FGFR2, FGFR3, FGFR4, FLT3, HRAS, IGF1R, JAK2, KIT, MAP2K1, MAP2K2, MAPK1, MET, NF1, NRAS, NTRK1, NTRK2, NTRK3, PDGFRA, PTPN11, RAC1, RAF1, RASA1, RET, RIT1, ROS1 and SOS1); and no oncogenic mutations in the RAS pathway. […] Cells were incubated for 120 h, and cell viability was determined using the CellTiter-Glo Luminescent Cell Viability Assay (CTG) (Promega, G7572) according to the manufacturer’s instructions.

Question: What does the source list for `CCn1c(-c2cc(N3CCN(C4CC4)CC3)cnc2[C@H](C)OC)c2c3cc(ccc31)-c1csc(n1)C[C@H](NC(=O)[C@H]1[C@@H]3COC[C@@H]31)C(=O)N1CCC[C@H](N1)C(=O)OCC(C)(C)C2` [RMC-7977]?
Answer: EC50 (read-out: RMC-7977 EC50 (M), HEP3B217, RAS pathway WT, Liver): 9.36e-09 M; EC50 (read-out: RMC-7977 EC50 (M), HM7, KRAS G12D, Large intestine/Colorectum): 1.86e-08 M; EC50 (read-out: RMC-7977 EC50 (M), HS852T, NRAS G12V, Skin): 4.07e-08 M; EC50 (read-out: RMC-7977 EC50 (M), HUH28, PTPN11 mut, Liver/Bile duct): 3.91e-08 M; EC50 (read-out: RMC-7977 EC50 (M), KG1, FGFR fusion, Blood/leukemia): 9.16e-09 M; EC50 (read-out: RMC-7977 EC50 (M), L82, ALK fusion, Blood/lymphoma): 2e-08 M; EC50 (read-out: RMC-7977 EC50 (M), NOZ, KRAS G12V, Liver/Bile duct): 4.17e-09 M; EC50 (read-out: RMC-7977 EC50 (M), OZ, KRAS Q61L, Liver/Bile duct): 3.55e-09 M; EC50 (read-out: RMC-7977 EC50 (M), PC9, EGFR mut, Lung): 1.56e-08 M; EC50 (read-out: RMC-7977 EC50 (M), RBE, KRAS G12V, Liver/Bile duct): 3.39e-10 M; EC50 (read-out: RMC-7977 EC50 (M), RKO, BRAF V600E, Large intestine/Colorectum): > 1e-06 M; EC50 (read-out: RMC-7977 EC50 (M), RT4, FGFR fusion, Bladder): 1.32e-08 M; EC50 (read-out: RMC-7977 EC50 (M), SCH, RAS pathway WT, Stomach): > 1e-06 M; EC50 (read-out: RMC-7977 EC50 (M), SNU719, NRAS Q61L, Stomach): 6.76e-09 M; EC50 (read-out: RMC-7977 EC50 (M), SNU2535, ALK fusion, Lung): 6.42e-09 M; EC50 (read-out: RMC-7977 EC50 (M), SNUC2A, KRAS G12D, Large intestine/Colorectum): 2.45e-09 M; EC50 (read-out: RMC-7977 EC50 (M), SR, ALK fusion, Thymus): 1.41e-08 M; EC50 (read-out: RMC-7977 EC50 (M), T24, HRAS G12V, Bladder): 1.2e-09 M; EC50 (read-out: RMC-7977 EC50 (M), T84, KRAS G13D, Large intestine/Colorectum): 5.62e-08 M; EC50 (read-out: RMC-7977 EC50 (M), TE441T, RAS pathway WT, Muscle): > 1e-06 M; EC50 (read-out: RMC-7977 EC50 (M), TJ905, NF1 LOF, Brain&Nerves): 1.06e-07 M; EC50 (read-out: RMC-7977 EC50 (M), YCC2, KRAS G12S, Stomach): 2.19e-09 M; EC50 (read-out: RMC-7977 EC50 (median), median over ALK fusion cell lines): 1.41e-08 M; EC50 (read-out: RMC-7977 EC50 (median), median over BRAF V600E cell lines): > 1e-06 M; EC50 (read-out: RMC-7977 EC50 (median), median over BRAF mut other cell lines): 7.54e-08 M; EC50 (read-out: RMC-7977 EC50 (median), median over EGFR mut cell lines): 4.52e-09 M; EC50 (read-out: RMC-7977 EC50 (median), median over ERBB3 mut cell lines): 5.92e-09 M; EC50 (read-out: RMC-7977 EC50 (median), median over FGFR fusion cell lines): 7.08e-09 M; EC50 (read-out: RMC-7977 EC50 (median), median over HRAS G12D cell lines): 8.45e-09 M; EC50 (read-out: RMC-7977 EC50 (median), median over HRAS G12V cell lines): 1.2e-09 M; EC50 (read-out: RMC-7977 EC50 (median), median over HRAS G161R cell lines): > 1e-06 M; EC50 (read-out: RMC-7977 EC50 (median), median over HRAS L133R cell lines): 1.23e-08 M; EC50 (read-out: RMC-7977 EC50 (median), median over HRAS Q61H cell lines): 4.57e-09 M; EC50 (read-out: RMC-7977 EC50 (median), median over HRAS Q61L cell lines): 1.62e-08 M; EC50 (read-out: RMC-7977 EC50 (median), median over KRAS A59T cell lines): 1.02e-09 M; EC50 (read-out: RMC-7977 EC50 (median), median over KRAS G12A cell lines): 1.2e-08 M; EC50 (read-out: RMC-7977 EC50 (median), median over KRAS G12C cell lines): 1.84e-09 M; EC50 (read-out: RMC-7977 EC50 (median), median over KRAS G12D cell lines): 2.86e-09 M; EC50 (read-out: RMC-7977 EC50 (median), median over KRAS G12R cell lines): 2.76e-09 M; EC50 (read-out: RMC-7977 EC50 (median), median over KRAS G12S cell lines): 3.21e-09 M; EC50 (read-out: RMC-7977 EC50 (median), median over KRAS G12V cell lines): 1.15e-09 M; EC50 (read-out: RMC-7977 EC50 (median), median over KRAS G13C cell lines): 1.41e-08 M; EC50 (read-out: RMC-7977 EC50 (median), median over KRAS G13D cell lines): 3.16e-08 M; EC50 (read-out: RMC-7977 EC50 (median), median over KRAS P121H cell lines): > 1e-06 M; EC50 (read-out: RMC-7977 EC50 (median), median over KRAS Q61H cell lines): > 1e-06 M; EC50 (read-out: RMC-7977 EC50 (median), median over KRAS Q61K cell lines): 3.22e-09 M; EC50 (read-out: RMC-7977 EC50 (median), median over KRAS Q61L cell lines): 9e-09 M; EC50 (read-out: RMC-7977 EC50 (median), median over KRAS R97I cell lines): 2.75e-09 M; EC50 (read-out: RMC-7977 EC50 (median), median over MET amp cell lines): 4.57e-09 M; EC50 (read-out: RMC-7977 EC50 (median), median over NF1 LOF cell lines): 3.25e-08 M; EC50 (read-out: RMC-7977 EC50 (median), median over NRAS G12V cell lines): 4.07e-08 M; EC50 (read-out: RMC-7977 EC50 (median), median over NRAS Q61K cell lines): 1.91e-09 M; EC50 (read-out: RMC-7977 EC50 (median), median over NRAS Q61L cell lines): 6.76e-09 M; EC50 (read-out: RMC-7977 EC50 (median), median over NRAS Q61R cell lines): 9.12e-09 M; EC50 (read-out: RMC-7977 EC50 (median), median over NRAS Y137H cell lines): 2.88e-08 M; EC50 (read-out: RMC-7977 EC50 (median), median over NTRK1 fusion cell lines): 5.14e-09 M; EC50 (read-out: RMC-7977 EC50 (median), median over PTPN11 mut cell lines): 7.95e-09 M; EC50 (read-out: RMC-7977 EC50 (median), median over RAS pathway WT cell lines): 1e-07 M; EC50 (read-out: RMC-7977 EC50 (median), median over RET fusion cell lines): 5.15e-09 M; EC50 (read-out: RMC-7977 EC50 (median), median over ROS1 fusion cell lines): 7.49e-09 M
